Results taken from patent US5945507A, “Antimicrobial peptides” (University of Pittsburgh, priority 1997, dated 1999).
“Also recorded” adds a separate entry of the source. Where two headings read alike, the source gives them in different places. Bridge positions count the residues as written; N and C are the ends. Ends that are not written are not given here. I, II: the chains in the order shown.

Assays:
S. aureus [1] = assay type: cell-based, Staphylococcus aureus; conditions: for antibacterial activity (in words): S. aureus; for MBC50: in µM
Method: Bacterial lysis assay. Bacterial lysis assays were conducted in a manner similar to that described previously (Lehrer, R. I., M. E. Selsted, D. Szklarek, and F. J. 1983. Infect. Immun. 42:10-14, 1983; Miller, M. A., R. F. Garry, J. M. Jaynes, and R. C. Montelaro, AIDS Res Hum Retroviruses 7:511-519, 1991). Bacterial suspensions were cultured in Luria Broth to mid-log growth phase and washed by several cycles of centrifugation and resuspension in 10 mM phosphate buffer. The A600 of the suspension was adjusted with 10 mM phosphate buffer such that, upon dilution, 5-10×10^5 CFU/ml would be treated in the assay. Bacteria were incubated with two-fold dilutions of peptides (32-0.1 μM in 96-well plates in 10 mM phosphate buffer, pH 7.2, for 1 hour. Ten-fold dilutions were performed to a dilution of 1:1000; a 100-μl aliquot from each condition was plated on tryptic soy agar (Difco, Detroit, Mich.) and the plates were incubated overnight. Colonies of surviving bacteria (colony-forming units) were counted and compared to untreated controls to determine the amount of peptide-induced killing under each condition. Log killing is defined as the log of the ratio of CFUs present before and after treatment with peptide. Complete killing is indicated where there were zero colonies per 100-μl aliquot of undiluted bacteria-peptide mixture.
Calculation of MBC. […] The minimal bactericidal concentration, MBC, is the peptide concentration at which 99.9% (3 logs) killing is achieved (Pearson et al., Antimicrob. Agents Chemother. 18:699-708, 1980). The MBC50 is the peptide concentration at which 50% killing is achieved.

[2] = test system: human red blood cells (RBC); assay type: cell-based; conditions: for % lysis at 100 μM: erythrocytes, 100 μM peptide; for hemolytic activity (in words): red blood cells; for hemolytic activity: red cells of human, 100 μM
Excerpt: Erythrocyte Lysis Assay. Peptides were screened for hemolytic activity by treating freshly isolated human red blood cells (RBC) with various concentrations of peptides, centrifuging the samples to pellet intact cells, and measuring the amount of hemoglobin in the supernatant to determine the extent of RBC lysis under each condition. The method used is essentially that described by Srinivas et al. (J. Biol. Chem. 267:7121-7127, 1992) with the following modifications: peptide concentrations of 0.1-100 μM were tested, the incubation period was 1 hour at 37° C., and the A570 was measured in duplicate wells of a 96-well plate. A calibration curve was constructed by treating various amounts of red blood cells (0, 20,40, 60, 80, and 100% of the volume of RBC used in test samples) with plain water, which completely lyses the cells. The standard curve was used to calculate the percent lysis at each peptide concentration.

S. aureus [3] = assay: Kinetics of bacterial killing, S. aureus; assay type: cell-based, Staphylococcus aureus; conditions: 10 μM peptide, FIG. 5
Method: Kinetics of Bacterial Killing. The time course of the cytolytic activity of a peptide was determined by a modification of the above procedure, where a volume of appropriately diluted bacteria was treated with 1-10 μM peptide; aliquots of this mixture were removed every 10 seconds and diluted 1:2 in 2× Luria Broth; each resulting suspension was subsequently plated on agar as described above. The number of colonies visible upon incubation for each time point was used to calculate a rate of killing by the peptide.

[4] = Table 7, substitution analogs, 50% reduction of CFU/ml
[5] = Table 7, substitution analogs, 99.9% reduction of CFU/ml
[6] = Table 6, truncated analogs, 50% reduction of CFU/ml
[7] = Table 6, truncated analogs, 99.9% reduction of CFU/ml
[8] = Table 4, peptide concentration (closest 2-fold dilution) reducing CFU/ml by 50%
[9] = Table 4, peptide concentration (closest 2-fold dilution) reducing CFU/ml by 99.9%, 1 hour

| Substance | antibacterial activity (in words) (S. aureus [1]) | MBC50 (S. aureus [1]; [4]) | MBC (S. aureus [1]; [5]) [µM] | % lysis at 100 μM ([2]; Table 7) [%] | hemolytic activity (in words) [2] | other results |
| --- | --- | --- | --- | --- | --- | --- |
| RVIRVVQGACRAIRHIPRRIRQGLRRIL [Analog 5, engineered analog of LLP1] | very high antibacterial and hemolytic activity | 0.3 | 2.5 | 100 | very high antibacterial and hemolytic activity | – |
| RVIEVVQGACRAIRHIPRRIRGQLERIL [LLP1-Am, LLP1 with chemically modified cysteine] | – | – | – | – | – | MBC50 (S. aureus [1]; Table 8, cysteine substitution analogs, 50% reduction of CFU/ml): 5; MBC (S. aureus [1]; Table 8, cysteine substitution analogs, 99.9% reduction of CFU/ml): 20 µM; % lysis at 100 μM ([2]; Table 8): 15% |
| FLIRQLIELLTWLFSNCRTLLSEVY [SLP2A1, engineered analog of SLP2A] | – | > 32 | > 32 | 7 | – | – |
| RVIEVVQGACRAIEHIPRRIRQGLERIL [Peptide R841E, engineered analog of LLP1] | reducing both the antibacterial and hemolytic activity | 10-20 | 40 to 80 | 30 | reducing both the antibacterial and hemolytic activity | – |
| GACRAIRHIPRRIR [LP14] | high level of antibacterial activity | – | – | – | virtually no hemolytic activity | MBC50 (S. aureus [1]; [6]): 2.5; MBC (S. aureus [1]; [7]): 10 µM; hemolytic activity [2]: less than 10% |
| RVIEVVQGACRASRHIPRRIRQGLERIL [Peptide I840S, engineered analog of LLP1] | reduces antibacterial activity | 2.5 | 10 to 20 | < 10 | significantly reduced | – |
| VVQGACRAIRHIPRRIR [LP17] | high level of antibacterial activity | – | – | – | virtually no hemolytic activity | MBC50 (S. aureus [1]; [6]): 5; MBC (S. aureus [1]; [7]): 20 µM; hemolytic activity [2]: less than 10% |
| YHRLRDLLLIVTRIVELLGRR [LLP2, HIVHXB2R 768-788] | highly active | – | – | – | – | MBC50 (S. aureus [1]; [8]): 1; MBC (S. aureus [1]; [9]): 4 µM |
| RIAGYGLRGLAVIIRICIRGLNLIFEIIR [ELP, EIAV 808-836 (Wyoming)] | absence of measurable bactericidal activity; also recorded: little antibacterial activity | – | – | – | high hemolytic activity; also recorded: highly hemolytic | MBC50 (S. aureus [1]; [8]): > 10; MBC (S. aureus [1]; [9]): > 10 µM |
| I: RVIEVVQGACRAIRHIPRRIRQGLERIL / II: RVIEVVQGACRAIRHIPRRIRQGLERIL (disulfide I:10-II:10) [bis-LLP1] | – | – | – | – | – | % lysis at 100 μM ([2]; Table 8): 100% |
| LLSEVYQILQPILQELSATLQRIREVLR [SLP2B1, engineered analog of SLP2B] | – | > 32 | > 32 | 10 | – | – |
| FLIRQLIRLLTWLFSNCRTLLSRVY [SLP2A, SIVMM239 771-795] | highly active | – | – | – | rather hemolytic | MBC50 (S. aureus [1]; [8]): 4; MBC (S. aureus [1]; [9]): > 32 µM |
| RVIEVVQGACRAIRHIPRRIRQGLERIL [LLP1] | – | – | – | – | Below 10 μM very little lysis is observed | % lysis at 100 μM ([2]; Table 8): 100%; hemolytic LD50 ([2]; text b508): 20 to 40 µM; killing within one minute (S. aureus [3]): over 99.99% |
| RVIEVVQGACRAIRHIPRRIEQGLERIL [Peptide R848E, engineered analog of LLP1] | reducing both the antibacterial and hemolytic activity | 20 | 80 | 10 | reducing both the antibacterial and hemolytic activity | – |
| RVIEVVQGACRAIRHIPRRIR [LP21] | high level of antibacterial activity | – | – | – | virtually no hemolytic activity | MBC50 (S. aureus [1]; [6]): 2.5; MBC (S. aureus [1]; [7]): 10 µM; hemolytic activity [2]: less than 10% |
| RVIEVVQGACRAIRHIPRRSRQGLERIL [Peptide I847S, engineered analog of LLP1] | reduces antibacterial activity | 5 | 20 | < 10 | significantly reduced | – |
| RVIEVVQGACRAIEHIPRRIEQGLERIL [Analog 3, engineered analog of LLP1] | devoid of activity | > 80 | > 80 | < 5 | devoid of activity | – |
| DLWETLRRGGRWILAIPRRIRQGLELTL [SLP1] | – | – | – | – | – | MBC50 (S. aureus [1]; [8]): 8; MBC (S. aureus [1]; [9]): > 16 µM |
| LLSRVYQILQPILQRLSATLQRIREVLR [SLP2B, SIVMM239 790-817] | highly active | – | – | – | – | MBC50 (S. aureus [1]; [8]): .25; MBC (S. aureus [1]; [9]): 1 µM |
